Where two headings read alike, the source gives them in different places.
Tests used:
[1] = test system: basal gastric acid secretion; test: Inhibition of total acid output in the acute gastric fistula rat; type: in vivo, Female Sprague-Dawley rats; conditions: for ED50: Rattus norvegicus
Method: The compounds of this invention are also useful as inhibitors of gastric acid secretion and peptic ulcer formation and may be used for the treatment of gastric hyperacidity, gastric erosion, and peptic ulcer. Inhibition of basal gastric acid secretion can be determined by the following procedure.
Female Sprague-Dawley rats weighting 140-160 grams are fasted in individual cages for 18-24 hours. The rats are then lightly anesthetized with ether and their front teeth extracted to avoid destruction of the plastic cannula. A midline incision is then made and the stomach and duodenum exposed. A flanged polyvinyl tube is inserted into the fundic portion of the stomach and secured with a purse string suture line using 4-O Mersilene. The rat is then dosed by injection of the compound into the duodenum (1.0 ml. per 100 gram body weight). After dosing, the abdominal wall and skin are closed using metal wound clips. The rate is replaced in a cage containing a longitudinal slit to allow the polyvinyl tube to hang freely. An 8 ml. plastic collecting tube is attached to the flanged cannula and hangs freely below the cage. The first 30 minute sample is discarded designating this time as zero. The collecting tube is attached again and samples removed at the end of 60 and 120 minutes. These samples are referred to as "A" and "B" in the table. The hourly samples are then transferred to a 15 ml. centrifuge and centrifuged for 5-10 minutes. Total and sediment volume are then recorded with the supernatent volume being used as volume of secretion. A 1 ml. or less aliquot is then removed and placed in a 50 ml. beaker containing 10 ml. of distilled water. This sample is then titrated using 0.01N NaOH to pH 7.0 using a Beckman zeromatic pH meter. Volume, titratable acidity (meg.L) and total acid output (μeg/hour) are recorded. Percent inhibition is determined by comparison with the appropriate control. Groups of three rats were used for preliminary testing, and groups of six rats were used for dose-response evaluations. All compounds are administered in a vehicle consisting of 0.5% methocel, 0.4% tween 80, and saline at a constant volume of 1 ml./100 gram rat. Samples are dispersed by sonification. Percent inhibition is calculated on basis of concurrent vehicle control.
In Table B which follows is given the effect on total acid output after 120 minutes of a 10 mg./kg. dose of representative ketals of this invention. For comparison the result obtained with the corresponding 9-oxo derivative, l 9-oxo-15(S)-hydroxyprostanoic acid is included.
Dose response evaluation in the acute gastric fistual rat assay further illustrates the pronounced advantage of the novel ketals of this invention as gastric acid secretion inhibitors relative to the corresponding 9-oxo derivative.

[2] = test system: bronchospasms elicited by intravenous injections of 5-hydroxytryptamine; test: Bronchodilator activity (Konzett assay, intravenous) against 5-hydroxytryptamine; type: in vivo, guinea pigs; conditions: Cavia porcellus, guinea pig, spasmogen 5-hydroxytryptamine, read-out: Bronchodilator Activity (Konzett Assays) ED50, 5-hydroxytryptamine
Method: (§1) The compounds of this invention are useful as bronchodilators for the treatment of asthma and chronic bronchitis. Bronchodilator activity is determined in guinea pigs against bronchospasms elicited by intravenous injections of 5-hydroxytryptamine, histamine or acetylcholine by the Konzett procedure. [See J. Lulling, P. Lievens, F. El Sayed and J. Prignot, Arzneimittel-Forschung, 18, 995 (1968).]
(§2) In Table A which follows bronchodilator activity for representative compounds of this invention against one or more of three spasmogenic agents is expressed as an ED50 determined from the results obtained with three logarithmic cumulative intravenous doses.

[3] = test system: bronchospasms elicited by intravenous injections of acetylcholine; test: Bronchodilator activity (Konzett assay, intravenous) against acetylcholine; type: in vivo, guinea pigs; conditions: Cavia porcellus, guinea pig, spasmogen acetylcholine, read-out: Bronchodilator Activity (Konzett Assays) ED50, acetylcholine
Method: as §1, §2

[4] = test system: bronchospasms elicited by histamine; test: Bronchodilator activity (intraduodenal route) against histamine; type: in vivo, guinea pigs; parameters: key: 0: no activity; +: minimal activity; ++++: maximum activity; conditions: intraduodenal dose 10 mg./kg.
Method: as §1
(§3) In Table A' which follows bronchodilator activity for representative compounds of this invention against one or more of three spasmogenic agents is reported. In this assay candidate compounds are suspended in 10% gum arabic solution and the suspension is administered by the intraduodenal route. The activity of the compound at any one dose is then investigated throughout the following hour (see above-cited reference, J. Lulling et al.). Potency is then reported as O, +, ++, +++, or ++++, wherein 0 represents no activity, + minimal activity and ++++ maximum activity.

gastric acid secretion = test: Gastric acid secretion inhibition, Shay-rat procedure; type: in vivo, rats (male, CFE strain); conditions: intraduodenal dose 100 mg./kg. of body weight
Method: Gastric acid secretion inhibition can also be observed in an assay wherein acid secretion is stimulated as in the well-known "Shay-rat" procedure, which is carried out in the following manner.
The rats (male, CFE strain) were starved for 48 hours (water was given ad libitum) to permit evacuation of stomach contents. On the morning of the experiment, under ether anesthesia, the abdominal region was shaved and a midline incision (1-11/2 inch) was made with a scapel. With the help of a closed curved hemostat the duodenum was picked up. […]
The abdominal cavity was exposed by cutting with scissors and the esophagus close to the stomach was clamped off with a hemostat, the stomach was removed by cutting above the hemostat (the esophagus was cut) and between the two sutures. […] The supernatant was collected, volume measured and recorded, 2 drops of a phenolphthalein indicator (1% in 95% ethanol) were added and the solution was tritrated with 0.02N NaOH (or with 0.04N NaOH when large volumes of stomach contents were encountered) to pH 8.4 (because of usual coloring of the stomach contents, phenolphthalein was only used to permit visual indication that the end point was near) and the amount of acid present was calculated. […]

[5] = test system: bronchospasms elicited by 5-hydroxytryptamine; test: Bronchodilator activity (intraduodenal route) against 5-hydroxytryptamine; type: in vivo, guinea pigs; parameters: key: 0: no activity; +: minimal activity; ++++: maximum activity
Method: as §1, §3

[6] = test system: bronchospasms elicited by intravenous injections of histamine; test: Bronchodilator activity (Konzett assay, intravenous) against histamine; type: in vivo, guinea pigs; conditions: Cavia porcellus, guinea pig, spasmogen histamine, read-out: Bronchodilator Activity (Konzett Assays) ED50, histamine
Method: as §1, §2

[7] = test system: bronchoconstriction induced by administration of pilocarpine; test: Bronchodilator activity by aerosol in dogs; type: in vivo; conditions: for bronchodilator activity by aerosol: aerosol concentration 0.032%
Method: (§4) The novel ketals of this invention also show bronchodilator activity when administered by aerosol to dogs wherein bronchoconstriction was induced by administration of pilocarpine. […] This is very important since coughing is one of the damaging side effects reported in the literature when prostaglandin aerosols are administered to human subjects. [See Y. Kawakami et al., European Journal Clinical Pharmacology, 6, 127 (1973); M. F. Cuthbert, Brit. Med. Journ. 723 (Dec. 20, 1969); H. Herxheimer and I. Roetscher, European Journal Clinical Pharmacology, 3, 123 (1971).]

cough = test: Cough induction by aerosol in human; type: in vivo
Method: as §4

[8] = 2 h, 10 mg./kg., intraduodenal route, rat, read-out: %-Inhibition of Total Acid Output After 120 Minutes
[9] = Table C, intraduodenal route, 1 hr. collection, read-out: ED50, 1 hr. collection (A)
[10] = Table C, intraduodenal route, 2 hr. collection, read-out: ED50, 2 hr. collection (B)

Row | Compound | inhibition in vivo at 10 mg/kg [1, 8] [%] | ED50 [1, 9] [mg/kg] | ED50 [1, 10] [mg/kg] | Bronchodilator potency, Spasmogenic Agent Histamine [4] | also measured
1 | l methyl 9,9-(2,2-dimethyl-1,3-propylenedioxy)-15(S)-acetoxy-prostenoate |  |  |  |  | %-Inhibition of Total Acid Output After 120 Minutes ([1]; 10 mg./kg., intraduodenal route, rat): 27%
2 | CCCCC[C@H](O)CC[C@H]1CCC2(OCC(C)O2)[C@@H]1CCCCCCC(=O)O (stereo partly drawn) [l-15(S)-hydroxy-9,9-(1-methylethylenedioxy)-prostanoic acid] | 61 |  |  |  | ED50 [2]: 0.104 µg/kg; ED50 [3]: 0.000644 mg/kg
3 | CCCCC[C@@H](CC[C@H]1CCC2(SCCS2)[C@@H]1CCCCCCC(=O)OC)OC(C)=O [l methyl 9,9-ethylenedithia-15(S)-acetoxy-prostanoate] | 32 |  |  |  | 
4 | CCCCC[C@@H](CC[C@H]1CCC2(OC(C)C(C)O2)[C@@H]1CCCCCCC(=O)OC)OC(C)=O (stereo partly drawn) [l methyl 9,9-(1,2-dimethylethylenedioxy)-15(S)-acetoxyprostanoate] | 74 | 7 | 7 |  | 
5 | CCCCC[C@H](O)CC[C@H]1CCC2(OC(C)C(C)O2)[C@@H]1CCCCCCC(=O)O (stereo partly drawn) [l-9,9-(1,2-dimethylethylenedioxy)-15(S)-hydroxy-prostanoic acid] | 57 | < 8 | 8 | + | 
6 | CCCCC[C@@H](CC[C@H]1CCC2(OCCCO2)[C@@H]1CCCCCCC(=O)OC)OC(C)=O [l methyl 9,9-(1,3-propylenedioxy)-15(S)-acetoxy-prostanoate] | 60 | 6 | 6 | + | 
7 | CCCCC[C@H](O)CC[C@H]1CCC2(OCCS2)[C@@H]1CCCCCCC(=O)O (stereo partly drawn) [l-9,9-(ethyleneoxythia)-15(S)-hydroxy-prostanoic acid] | 39 |  |  | + | 
8 | CCCCC[C@@H](CC[C@H]1CCC2(OCCO2)[C@@H]1CCCCCCC(=O)OC)OC(C)=O [l methyl 9,9-ethylenedioxy-15(S)-acetoxy-prostanoate] | 100 |  | 3 |  | ED50 ([1]; 2 h, Table B, intraduodenal route, after 120 minutes, read-out: ED50 (inhibition of total acid output)): 3 mg/kg
9 | CCCCCC(O)CCC1CCC2(OCCO2)C1CCCCCCC(=O)O (racemic) [9,9-(ethylenedioxy)-15-hydroxy-prostanoic acid] |  |  |  |  | Percent Inhibition (gastric acid secretion, Shay rat) (gastric acid secretion): 56%
10 | CCCCC[C@@H](CC[C@H]1CCC2(OCC(CCl)O2)[C@@H]1CCCCCCC(=O)OC)OC(C)=O (stereo partly drawn) [l methyl-9,9-(1-chloromethylethylenedioxy)-15(S)-acetoxy-prostanoate] | 26 |  |  | + | 
11 | CCCCC[C@H](O)CC[C@H]1CCC2(OCC(CCl)O2)[C@@H]1CCCCCCC(=O)O (stereo partly drawn) [l-9,9-(1-chloromethylethylenedioxy)-15(S)-hydroxy-prostanoic acid] | 99 | 6 | 6 |  | Bronchodilator potency, Spasmogenic Agent 5-Hydroxytryptamine ([5]; intraduodenal dose 3.2 mg./kg.): ++++
12 | CCCCC[C@H](O)CC[C@H]1CCC2(OCCO2)[C@@H]1CCCCCCC(=O)O [l-9,9-(ethylenedioxy)-15(S)-hydroxy-prostanoic acid] | 63 | 1 | 2.3 |  | ED50 [2]: 2.53 µg/kg; ED50 [6]: 0.376 µg/kg; ED50 [3]: 0.0274 mg/kg; bronchodilator activity by aerosol [7]: fully-present; potency of the ketal relative to the ketone ([7]; aerosol, versus l 9-oxo-15(S)-hydroxyprostanoic acid): at least 10 times; induction of cough by aerosol (cough): does not induce cough
13 | CCCCC[C@@H](CC[C@H]1CCC2(OCC(C)O2)[C@@H]1CCCCCCC(=O)OC)OC(C)=O (stereo partly drawn) [l methyl 9,9-(1-methylethylenedioxy)-15(S)-acetoxyprostanoate] |  |  |  |  | Bronchodilator potency, Spasmogenic Agent 5-Hydroxytryptamine ([5]; intraduodenal dose 10 mg./kg.): +
14 | CCCCC[C@H](O)CC[C@H]1CCC2(OCC(C)(C)CO2)[C@@H]1CCCCCCC(=O)O [9,9-(2,2-dimethylpropylenedioxy)-15(S)-hydroxy-prostanoic acid] | 32 |  |  | + | Bronchodilator potency, Spasmogenic Agent 5-Hydroxytryptamine ([5]; intraduodenal dose 10 mg./kg.): +
15 | CCCCC[C@H](O)CC[C@H]1CCC(=O)[C@@H]1CCCCCCC(=O)O [l 9-oxo-15(S)-hydroxyprostanoic acid, 1-15(S)-hydroxy-9-oxo-prostanoic acid, reference compound] |  | 18 | > 25 |  | bronchodilator activity by aerosol [7]: very weak; induction of cough by aerosol (cough): ketone aerosol does; inhibition in vivo at 12.5 mg/kg ([1]; 2 h, 12.5 mg./kg. dose, intraduodenal route, rat, read-out: %-Inhibition of Total Acid Output After 120 Minutes): 27%; potency relative to the ketals ([1]; total acid output, Table B): significantly less potent than the ketals

Reference: patent US4017534A, “16-Fluoro-11-deoxy-13-dihydro-prostaglandin” (American Cyanamid Company, priority 1975, dated 1977)
